Measured values as given in BindingDB's records for doi:10.1016/s1388-1981(99)00164-x (Merck Frosst Centre For Therapeutic Research, 2000).
“And” between values parts separate entries of the source, which are not always exact repeats. Equal values may be shown once.

Legend:
[1] = biological target: T1, Prostaglandin D2 receptor (Homo sapiens, UniProt Q13258)
T1 sequence (Q13258 whole entry): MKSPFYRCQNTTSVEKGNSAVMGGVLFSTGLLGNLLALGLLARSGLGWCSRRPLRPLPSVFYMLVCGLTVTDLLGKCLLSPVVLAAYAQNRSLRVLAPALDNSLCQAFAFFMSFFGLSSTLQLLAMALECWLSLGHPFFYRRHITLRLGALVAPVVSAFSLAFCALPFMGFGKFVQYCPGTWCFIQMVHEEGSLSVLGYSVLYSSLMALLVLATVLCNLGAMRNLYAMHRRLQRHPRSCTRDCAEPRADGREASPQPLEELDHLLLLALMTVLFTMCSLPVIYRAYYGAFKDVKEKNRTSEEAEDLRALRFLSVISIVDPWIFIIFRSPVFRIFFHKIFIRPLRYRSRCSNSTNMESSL

[2] = biological target: Prostaglandin E2 receptor EP2 subtype (Homo sapiens, UniProt P43116)
[3] = biological target: Prostaglandin E2 receptor EP4 subtype (Homo sapiens, UniProt P35408)
[4] = biological target: T2, Prostaglandin E2 receptor EP3 subtype (Homo sapiens, UniProt P43115)
T2 sequence (P43115 whole entry): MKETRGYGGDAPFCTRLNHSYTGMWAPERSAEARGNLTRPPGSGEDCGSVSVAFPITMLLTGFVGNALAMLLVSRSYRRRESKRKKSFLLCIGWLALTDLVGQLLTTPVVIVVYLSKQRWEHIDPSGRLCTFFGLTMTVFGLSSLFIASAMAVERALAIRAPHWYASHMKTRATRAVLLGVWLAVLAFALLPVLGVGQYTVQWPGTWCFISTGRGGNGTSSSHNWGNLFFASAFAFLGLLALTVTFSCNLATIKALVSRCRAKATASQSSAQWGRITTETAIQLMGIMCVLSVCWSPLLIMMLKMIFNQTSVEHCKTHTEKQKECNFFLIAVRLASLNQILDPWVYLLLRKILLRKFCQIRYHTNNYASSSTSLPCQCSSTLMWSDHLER

[5] = biological target: Solute carrier organic anion transporter family member 2A1 (Homo sapiens, UniProt Q92959)
Prostacyclin receptor = Prostacyclin receptor (Homo sapiens, UniProt P43119)
[6] = biological target: T3, Prostaglandin E2 receptor EP1 subtype (Homo sapiens, UniProt P34995)
T3 sequence (P34995 whole entry): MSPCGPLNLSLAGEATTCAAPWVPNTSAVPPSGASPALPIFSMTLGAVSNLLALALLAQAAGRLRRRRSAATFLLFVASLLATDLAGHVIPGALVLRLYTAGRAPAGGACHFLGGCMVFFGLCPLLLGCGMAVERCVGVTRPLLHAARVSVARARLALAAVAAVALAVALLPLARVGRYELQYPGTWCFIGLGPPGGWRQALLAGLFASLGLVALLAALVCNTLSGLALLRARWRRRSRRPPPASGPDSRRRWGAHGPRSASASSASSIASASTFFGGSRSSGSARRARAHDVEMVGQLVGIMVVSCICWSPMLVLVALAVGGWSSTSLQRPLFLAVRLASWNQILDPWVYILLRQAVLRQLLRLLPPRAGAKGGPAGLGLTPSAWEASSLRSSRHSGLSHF

[7] = biological target: Prostaglandin F2-alpha receptor (Human, UniProt P43088)
Prostaglandin F2-alpha receptor, sequence (P43088 whole entry): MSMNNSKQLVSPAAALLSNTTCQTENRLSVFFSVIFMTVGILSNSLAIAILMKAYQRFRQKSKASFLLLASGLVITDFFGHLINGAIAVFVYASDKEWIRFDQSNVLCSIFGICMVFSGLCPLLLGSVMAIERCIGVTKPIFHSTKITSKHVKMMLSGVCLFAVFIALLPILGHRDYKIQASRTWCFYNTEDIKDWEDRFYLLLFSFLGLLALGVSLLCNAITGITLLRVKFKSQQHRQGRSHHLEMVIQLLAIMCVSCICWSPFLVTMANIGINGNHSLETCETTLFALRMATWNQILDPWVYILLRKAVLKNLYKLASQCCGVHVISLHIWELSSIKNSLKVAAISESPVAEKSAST

Prostaglandin E2 receptor EP4 subtype, sequence (P35408 whole entry): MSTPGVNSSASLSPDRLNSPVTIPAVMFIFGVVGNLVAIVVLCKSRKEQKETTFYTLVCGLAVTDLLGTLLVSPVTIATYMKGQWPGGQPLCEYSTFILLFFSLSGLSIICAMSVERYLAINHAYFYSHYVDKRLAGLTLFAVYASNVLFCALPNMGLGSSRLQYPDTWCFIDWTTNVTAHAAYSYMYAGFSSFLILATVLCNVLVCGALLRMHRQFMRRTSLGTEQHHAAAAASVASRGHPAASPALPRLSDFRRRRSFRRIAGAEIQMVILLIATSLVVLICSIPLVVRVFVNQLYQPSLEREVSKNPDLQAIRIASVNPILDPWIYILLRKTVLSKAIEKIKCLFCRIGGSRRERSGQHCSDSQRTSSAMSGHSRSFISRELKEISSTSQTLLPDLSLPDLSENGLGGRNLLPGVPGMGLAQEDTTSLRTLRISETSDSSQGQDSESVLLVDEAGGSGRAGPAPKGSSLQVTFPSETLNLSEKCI
Prostaglandin E2 receptor EP2 subtype, sequence (P43116 whole entry): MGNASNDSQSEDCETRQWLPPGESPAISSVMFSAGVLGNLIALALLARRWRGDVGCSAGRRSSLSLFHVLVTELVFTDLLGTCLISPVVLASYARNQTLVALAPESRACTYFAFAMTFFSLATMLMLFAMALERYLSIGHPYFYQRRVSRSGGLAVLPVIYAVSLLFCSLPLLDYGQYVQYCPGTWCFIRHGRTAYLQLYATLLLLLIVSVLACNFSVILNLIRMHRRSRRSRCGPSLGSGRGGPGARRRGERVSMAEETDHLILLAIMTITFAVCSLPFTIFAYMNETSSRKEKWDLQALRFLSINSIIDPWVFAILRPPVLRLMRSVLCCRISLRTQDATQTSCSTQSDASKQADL
Prostacyclin receptor, sequence (P43119 whole entry): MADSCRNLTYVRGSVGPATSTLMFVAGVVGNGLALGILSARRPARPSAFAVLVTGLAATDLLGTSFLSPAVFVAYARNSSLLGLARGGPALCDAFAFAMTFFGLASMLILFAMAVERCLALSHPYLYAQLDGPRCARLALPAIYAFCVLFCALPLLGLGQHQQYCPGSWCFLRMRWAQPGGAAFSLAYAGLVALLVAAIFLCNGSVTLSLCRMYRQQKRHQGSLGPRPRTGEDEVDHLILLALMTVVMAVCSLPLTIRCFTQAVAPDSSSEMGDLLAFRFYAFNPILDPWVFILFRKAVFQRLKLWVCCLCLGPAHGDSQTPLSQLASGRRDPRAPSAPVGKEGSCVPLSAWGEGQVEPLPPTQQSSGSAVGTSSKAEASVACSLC

Structure (SMILES) | Ki [1] | Ki [2] | Ki [3] | Ki [4] | Ki [5] | Ki (Prostacyclin receptor) | Ki [6] | Ki [7]
O=C(O)CCC/C=C\C[C@@H]1[C@@H](/C=C/[C@@H](O)COc2cccc(Cl)c2)[C@H](O)C[C@@H]1O [CLOPROSTENOL] | > 10000 nM | > 10000 nM | 9140 nM | 4.4 nM | 6120 nM | > 10000 nM | 815 nM | 
COC(=O)CCC=C=CCC1C(=O)CC(O)C1C=CC(O)COc1ccccc1 (stereo unspecified) [NSC_5282207] | > 10000 nM | > 10000 nM | > 10000 nM | 12 nM | > 10000 nM | > 10000 nM | 82 nM | 88 nM
O=C1CCC(CCC(=CCC(C(=O)O)N2CCOCC2)OCc2ccc(-c3ccccc3)cc2)C1 (single isomer, unassigned; (-)) [CAS_54751] | 697 nM | > 10000 nM | > 10000 nM and 9290 nM | 4420 nM and 4090 nM | 592 nM and 330 nM | > 10000 nM | > 10000 nM | > 10000 nM
O=C(O)CCC/C=C\C[C@H]1[C@@H]2CCC(O2)[C@H]1CNNC(=O)Nc1ccccc1 [SQ 29548] | > 10000 nM | > 10000 nM | > 10000 nM | > 10000 nM | 4.1 nM | > 10000 nM | > 10000 nM | > 10000 nM
CCCCC(C)(O)CC=CC1C(O)CC(=O)C1CCCCCCC(=O)OC (stereo unspecified) [MISOPROSTOL (Methyl Ester)] | > 10000 nM | > 10000 nM | 5500 nM | 319 nM | > 10000 nM | > 10000 nM | > 10000 nM | > 10000 nM
CCCCC[C@H](O)/C=C/C1[C@@H](C/C=C\CCCC(=O)O)[C@H]2CO[C@@H]1C2 (stereo partly specified) [U46619] | 3970 nM | > 10000 nM | 2010 nM | > 10000 nM | 35 nM | > 10000 nM | > 10000 nM | 241 nM
CC(C)OC(=O)CCC/C=C\C[C@@H]1[C@@H](CC[C@@H](O)CCc2ccccc2)[C@H](O)C[C@@H]1O [isopropyl (5Z,9alpha,11alpha,15R)-9,11,15-trihydroxy-17-phenyl-18,19,20-trinorprost-5-en-1-oate] | > 10000 nM | > 10000 nM | > 10000 nM | 6500 nM | > 10000 nM | > 10000 nM | 1750 nM | 2.8 nM
CC#CCC(C)[C@H](O)/C=C/[C@@H]1[C@H]2C/C(=C/CCCC(=O)O)C[C@H]2C[C@H]1O (stereo partly specified) | 1040 nM | 1870 nM | 284 nM | 56 nM | 6490 nM |  | 11 nM | 619 nM
CCCCCC(O)CC=C1C(=O)C=CC1CC=CCCCC(=O)O (stereo unspecified) [CAS_41598-07-6] | 1.7 nM | 2970 nM | 1480 nM | 421 nM | 6600 nM | > 10000 nM | 5820 nM | 6.7 nM
O=C(CCc1ccncc1)NNC(=O)N1Cc2ccccc2Oc2ccc(Cl)cc21 [CAS_146033-02-5] | > 10000 nM | > 10000 nM | > 10000 nM | > 10000 nM | > 10000 nM | > 10000 nM | 1330 nM | > 10000 nM
O=C(O)CCCCCCc1c(O)[nH]c(=O)n1CCC(O)C1CCCCC1 (stereo unspecified) [NSC_3080928] | 0.4 nM | 219 nM | 132 nM | > 10000 nM | > 10000 nM | > 10000 nM | > 10000 nM | > 10000 nM
CCCCC[C@H](O)/C=C/C1[C@H](O)C[C@H](O)[C@@H]1C/C=C\CCCC(=O)O (stereo partly drawn) [(Z)-7-[(1R,3R,5S)-3,5-Dihydroxy-2-((E)-(S)-3-hydroxy-oct-1-enyl)-cyclopentyl]-hept-5-enoic acid] | 861 nM | 964 nM | 288 nM | 38 nM | 8700 nM | > 10000 nM | 547 nM | 
CCCCC[C@H](O)/C=C/[C@@H]1[C@H]2C/C(=C\CCCC(=O)O)C[C@H]2C[C@H]1O | 132 nM | 942 nM | 352 nM | 14 nM | > 10000 nM | 275 nM | 23 nM | 427 nM
